Reference: patent publication US20250026721A1, “COMPOUNDS AND METHODS FOR MODULATING RAS-PI3K” (Vividion Therapeutics, Inc., priority 2023, published 2025)

What was measured:
[1] = biological target: T1, PIK3CA (Homo sapiens, UniProt P42336); test: In vitro ELISA target engagement assay for PIK3CA in Jurkat cellular lysate (competition with PIK3CA Biotin Probe); type: binding; conditions: 1 hour at rt, then 500 nM PIK3CA Biotin Probe, read-out: Elisa Target Engagement Assay (TE50)
T1 construct: endogenous in cells; host or cells: Jurkat cell lysate
T1 sequence (P42336 whole entry): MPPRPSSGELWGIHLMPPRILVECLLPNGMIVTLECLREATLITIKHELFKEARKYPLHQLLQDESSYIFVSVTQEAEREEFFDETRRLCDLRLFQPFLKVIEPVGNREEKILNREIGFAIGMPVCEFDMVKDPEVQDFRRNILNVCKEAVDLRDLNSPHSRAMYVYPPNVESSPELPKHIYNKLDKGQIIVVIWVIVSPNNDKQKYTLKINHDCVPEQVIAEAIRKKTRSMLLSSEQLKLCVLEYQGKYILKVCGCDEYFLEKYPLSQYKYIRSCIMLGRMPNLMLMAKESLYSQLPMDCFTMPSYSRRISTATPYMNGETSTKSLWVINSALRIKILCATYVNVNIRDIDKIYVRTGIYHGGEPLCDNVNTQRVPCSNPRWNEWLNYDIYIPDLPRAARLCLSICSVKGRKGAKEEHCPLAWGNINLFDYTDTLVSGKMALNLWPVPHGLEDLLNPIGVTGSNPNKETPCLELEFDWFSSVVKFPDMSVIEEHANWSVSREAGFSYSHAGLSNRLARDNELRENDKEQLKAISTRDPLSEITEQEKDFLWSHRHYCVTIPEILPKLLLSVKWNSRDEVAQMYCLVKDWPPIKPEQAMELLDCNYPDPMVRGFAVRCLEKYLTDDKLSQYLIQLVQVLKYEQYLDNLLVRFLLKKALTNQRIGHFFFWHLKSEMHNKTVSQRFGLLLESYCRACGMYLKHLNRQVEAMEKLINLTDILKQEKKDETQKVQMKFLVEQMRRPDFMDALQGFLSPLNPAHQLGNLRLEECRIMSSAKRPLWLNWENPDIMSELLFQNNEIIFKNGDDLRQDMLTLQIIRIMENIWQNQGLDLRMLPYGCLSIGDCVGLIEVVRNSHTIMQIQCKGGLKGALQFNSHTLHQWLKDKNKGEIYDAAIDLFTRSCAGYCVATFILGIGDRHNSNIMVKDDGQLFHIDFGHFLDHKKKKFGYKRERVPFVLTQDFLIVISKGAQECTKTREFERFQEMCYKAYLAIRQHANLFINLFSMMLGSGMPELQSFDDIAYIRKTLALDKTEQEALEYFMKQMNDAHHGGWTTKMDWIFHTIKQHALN
T1 sequence (P27986 whole entry partner): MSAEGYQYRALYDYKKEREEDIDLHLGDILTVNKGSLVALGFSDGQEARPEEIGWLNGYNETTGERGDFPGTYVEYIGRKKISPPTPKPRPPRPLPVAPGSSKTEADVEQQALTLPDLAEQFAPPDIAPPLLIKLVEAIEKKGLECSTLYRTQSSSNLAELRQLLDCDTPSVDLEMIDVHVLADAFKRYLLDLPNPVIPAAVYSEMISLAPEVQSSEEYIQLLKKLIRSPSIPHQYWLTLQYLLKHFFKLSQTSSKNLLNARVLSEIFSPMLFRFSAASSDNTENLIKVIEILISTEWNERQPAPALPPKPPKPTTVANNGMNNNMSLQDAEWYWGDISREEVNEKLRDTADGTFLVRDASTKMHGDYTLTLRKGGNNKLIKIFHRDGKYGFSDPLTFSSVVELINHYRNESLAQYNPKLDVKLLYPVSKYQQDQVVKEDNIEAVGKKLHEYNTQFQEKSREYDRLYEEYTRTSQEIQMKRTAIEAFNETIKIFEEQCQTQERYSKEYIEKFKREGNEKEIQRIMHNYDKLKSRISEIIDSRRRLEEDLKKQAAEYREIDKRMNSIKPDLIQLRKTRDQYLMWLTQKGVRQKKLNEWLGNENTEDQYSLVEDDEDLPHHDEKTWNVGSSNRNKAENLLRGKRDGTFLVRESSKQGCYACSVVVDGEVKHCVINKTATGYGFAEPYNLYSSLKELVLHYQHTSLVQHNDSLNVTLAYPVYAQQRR
Method in brief: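 Competition format in Jurkat lysate: compound (serial dilutions, top 200 μM) for 1 h at rt, then 500 nM final biotinylated PIK3CA probe for 1 h at rt. Sandwich ELISA with capture antibody and Neutravidin-HRP luminescence read-out measured probe-labelled PIK3CA, giving TE50.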

[2] = biological target: T2, PIK3CA_C242 (Homo sapiens, UniProt P42336); test: Proteomic TE50 (IA-DTB / TMT mass spectrometry) in Jurkat cell lysate; type: binding; conditions: 1 hour at rt, 7-point dose response
T2 construct: endogenous in cells; host or cells: Jurkat cell lysate
T2 sequence (P42336 whole entry): as the sequence (P42336 whole entry) above
T2 sequence (P27986 whole entry partner): as the sequence (P27986 whole entry partner) above
Experimental: Example 4. Proteomic TE50 In vitro TE50 values for PIK3CA_C242 were obtained by treating 500 μg of cell lysate generated from Jurkat cells with DMSO or compound for 1 hour at rt followed by the addition of 200 μM desthiobiotin polyethyleneoxide iodoacetamide (IA-DTB) in DMSO for one hour at rt. Compounds were serially diluted 1:5 for a total of 7 points in order to generate dose response curves. Samples were then precipitated by the addition of 8× ice cold acetone and incubated at -80° C. for two hours. Protein was then pelleted by centrifugation (4,200 RPM, 45 min, 4° C.). The pelleted material was resuspended in 9M urea, 50 mM ammonium bicarbonate and proteins were reduced and alkylated by the addition of DTT and iodoacetamide (10 and 30 mM, respectively). Following reduction and alkylation, samples were exchanged into 2M urea (Zeba spin desalting plates, Thermo Fisher) and digested with Trypsin. IA-DTB labeled peptides were isolated with streptavidin agarose resin. Enriched peptides were eluted by the addition of 50% acetonitrile (ACN) 0.1% formic acid (FA) and dried in a SpeedVac vacuum concentrator. […] Reactions were quenched by the addition of 6.5 μL of 5% hydroxylamine. Samples were then combined and desalted on a Evolute express ABN plate (Biotage, 600-0010-PX01). Targeted TMT measurements were collected using an Orbitrap Lumos Tribrid Mass Spectrometer (Thermo Scientific) coupled to an UltiMate 3000 Series Rapid Separation LC system and autosampler (Thermo Scientific Dionex). Peptides were eluted onto a custom C18 capillary analytical column (75-μm inner diameter fused silica, packed with Acclaim PepMap C18 resin; Thermo Scientific) using an Acclaim PepMap 100 (Thermo 164535) loading column, and separated at a flow rate of […]. Data were acquired using a specific MS3-based TMT method targeting the peptide containing […], +2 charge state) where MS2 peptide fragmentation is triggered upon detection of the peptide precursor ion. Subsequent MS3 analysis was then performed using pre-selected peptide fragment ions that were isolated for fragmentation using synchronous precursor selection. RAW files were converted to MZXML format and searched with the SEQUEST algorithm using the […] software package. TMT quantitation was performed with a filter requiring at least ten summed signal-to-noise (S/N) for control channels. TE50 values were calculated from 7-point dose response curves created using the reporter ion S/N for each channel.

IC50 [1] [nM] | IC50 [2] [nM] | SMILES
60 | 107 | COc1cccc(-c2cc(N(C)C)ccc2S(=O)(=O)N2CCC(F)(C(=O)N[C@@H](C)/C=C\S(C)(=O)=O)CC2)c1 (racemic) [Compound 86, 1-[4-(Dimethylamino)-2-(3-methoxyphenyl)phenyl]sulfonyl-4-fluoro-N-[rac-(Z, 1S)-1-methyl-3-methylsulfonyl-allyl]piperidine-4-carboxamide]
110 | 246 | COc1cccc(-c2cc(Cl)ccc2S(=O)(=O)N2CCC(F)(C(=O)N[C@@H](C)/C=C\S(C)(=O)=O)CC2)c1 [Compound 1, (S,Z)-1-((5-chloro-3′-methoxy-[1,1′-biphenyl]-2-yl)sulfonyl)-4-fluoro-N-(4-(methylsulfonyl)but-3-en-2-yl)piperidine-4-carboxamide]
90 | 110 | C[C@@H](/C=C\S(C)(=O)=O)NC(=O)C1(F)CCN(S(=O)(=O)c2ccc(Cl)cc2-c2cccc(Cl)c2)CC1 [Compound 3, (S,Z)-1-((3′,5-dichloro-[1,1′-biphenyl]-2-yl)sulfonyl)-4-fluoro-N-(4-(methylsulfonyl)but-3-en-2-yl)piperidine-4-carboxamide]
140 | 206 | COc1ccc(S(=O)(=O)N2CCC(F)(C(=O)N[C@@H](C)/C=C\S(C)(=O)=O)CC2)c(-c2ccccc2)c1 [Compound 4, (S,Z)-4-fluoro-1-((5-methoxy-[1,1′-biphenyl]-2-yl)sulfonyl)-N-(4-(methylsulfonyl)but-3-en-2-yl)piperidine-4-carboxamide]
200 | 187 | COc1cccc(-c2cc(OC)ccc2S(=O)(=O)N2CCC(F)(C(=O)N[C@@H](C)/C=C\S(C)(=O)=O)CC2)c1 [Compound 5, (S,Z)-1-((3′,5-dimethoxy-[1,1′-biphenyl]-2-yl)sulfonyl)-4-fluoro-N-(4-(methylsulfonyl)but-3-en-2-yl)piperidine-4-carboxamide]
50 | 26 | C[C@@H](/C=C\S(C)(=O)=O)NC(=O)C1(F)CCN(S(=O)(=O)c2ccc(Cl)cc2-c2ccccc2Cl)CC1 [Compound 6, (S,Z)-1-((2′,5-dichloro-[1,1′-biphenyl]-2-yl)sulfonyl)-4-fluoro-N-(4-(methylsulfonyl)but-3-en-2-yl)piperidine-4-carboxamide]
90 | 107 | COc1ccc(S(=O)(=O)N2CCC(F)(C(=O)N[C@@H](C)/C=C\S(C)(=O)=O)CC2)c(-c2cccc(Cl)c2)c1 [Compound 7, (S,Z)-1-((3′-chloro-5-methoxy-[1,1′-biphenyl]-2-yl)sulfonyl)-4-fluoro-N-(4-(methylsulfonyl)but-3-en-2-yl)piperidine-4-carboxamide]
690 | 1350 | C[C@@H](/C=C\S(C)(=O)=O)NC(=O)C1(F)CCN(S(=O)(=O)c2ccc(Cl)cc2-c2cccc(C#N)c2)CC1 [Compound 8, (S,Z)-1-((5-chloro-3′-cyano-[1,1′-biphenyl]-2-yl)sulfonyl)-4-fluoro-N-(4-(methylsulfonyl)but-3-en-2-yl)piperidine-4-carboxamide]
570 | 507 | COc1cccc(-c2cc(F)ccc2S(=O)(=O)N2CCC(F)(C(=O)N[C@@H](C)/C=C\S(C)(=O)=O)CC2)c1 [Compound 9, (S,Z)-4-fluoro-1-((5-fluoro-3′-methoxy-[1,1′-biphenyl]-2-yl)sulfonyl)-N-(4-(methylsulfonyl)but-3-en-2-yl)piperidine-4-carboxamide]
320 | 275 | CCOc1cccc(-c2cc(Cl)ccc2S(=O)(=O)N2CCC(F)(C(=O)N[C@@H](C)/C=C\S(C)(=O)=O)CC2)c1 [Compound 10, (S,Z)-1-((5-chloro-3′-ethoxy-[1,1′-biphenyl]-2-yl)sulfonyl)-4-fluoro-N-(4-(methylsulfonyl)but-3-en-2-yl)piperidine-4-carboxamide]
470 | 330 | CCCOc1cccc(-c2cc(Cl)ccc2S(=O)(=O)N2CCC(F)(C(=O)N[C@@H](C)/C=C\S(C)(=O)=O)CC2)c1 [Compound 14, (S,Z)-1-((5-chloro-3′-propoxy-[1,1′-biphenyl]-2-yl)sulfonyl)-4-fluoro-N-(4-(methylsulfonyl)but-3-en-2-yl)piperidine-4-carboxamide]
410 | 400 | C[C@@H](/C=C\S(C)(=O)=O)NC(=O)C1(F)CCN(S(=O)(=O)c2ccc(Cl)cc2-c2cccc(OC3CC3)c2)CC1 [Compound 15, (S,Z)-1-((5-chloro-3′-cyclopropoxy-[1,1′-biphenyl]-2-yl)sulfonyl)-4-fluoro-N-(4-(methylsulfonyl)but-3-en-2-yl)piperidine-4-carboxamide]
200 | 210 | COc1ccc(Cl)c(-c2cc(Cl)ccc2S(=O)(=O)N2CCC(F)(C(=O)N[C@@H](C)/C=C\S(C)(=O)=O)CC2)c1 [Compound 16, (S,Z)-1-((2′,5-dichloro-5′-methoxy-[1,1′-biphenyl]-2-yl)sulfonyl)-4-fluoro-N-(4-(methylsulfonyl)but-3-en-2-yl)piperidine-4-carboxamide]
680 | 462 | C[C@H](/C=C\S(C)(=O)=O)NC(=O)C1(F)CCN(S(=O)(=O)c2ccc(Cl)cc2-c2ccccc2)CC1 [Compound 20, (R,Z)-1-((5-chloro-[1,1′-biphenyl]-2-yl)sulfonyl)-4-fluoro-N-(4-(methylsulfonyl)but-3-en-2-yl)piperidine-4-carboxamide]
1000 | 1230 | COc1ccc(S(=O)(=O)N2CCC(F)(C(=O)N[C@H](C)/C=C\S(C)(=O)=O)CC2)c(-c2ccccc2)c1 [Compound 21, (R,Z)-4-fluoro-1-((5-methoxy-[1,1′-biphenyl]-2-yl)sulfonyl)-N-(4-(methylsulfonyl)but-3-en-2-yl)piperidine-4-carboxamide]
770 | 785 | COc1ccc(S(=O)(=O)N2CCC(F)(C(=O)N[C@H](C)/C=C\S(C)(=O)=O)CC2)c(-c2cccc(Cl)c2)c1 [Compound 22, (R,Z)-1-((3′-chloro-5-methoxy-[1,1′-biphenyl]-2-yl)sulfonyl)-4-fluoro-N-(4-(methylsulfonyl)but-3-en-2-yl)piperidine-4-carboxamide]
170 | 232 | COc1ccc(S(=O)(=O)N2CCC(F)(C(=O)N[C@H](C)/C=C\S(C)(=O)=O)CC2)c(-c2ccccc2C)c1 [Compound 24, (R,Z)-4-fluoro-1-((5-methoxy-2′-methyl-[1,1′-biphenyl]-2-yl)sulfonyl)-N-(4-(methylsulfonyl)but-3-en-2-yl)piperidine-4-carboxamide]
290 | 238 | COc1ccc(S(=O)(=O)N2CCC(F)(C(=O)N[C@H](C)/C=C\S(C)(=O)=O)CC2)c(-c2ccccc2Cl)c1 [Compound 25, (R,Z)-1-((2′-chloro-5-methoxy-[1,1′-biphenyl]-2-yl)sulfonyl)-4-fluoro-N-(4-(methylsulfonyl)but-3-en-2-yl)piperidine-4-carboxamide]
384 | 371 | COc1ccc(S(=O)(=O)N2CCC(F)(C(=O)N[C@H](C)/C=C\S(C)(=O)=O)CC2)c(-c2cccc(F)c2Cl)c1 [Compound 26, (R,Z)-1-((2′-chloro-3′-fluoro-5-methoxy-[1,1′-biphenyl]-2-yl)sulfonyl)-4-fluoro-N-(4-(methylsulfonyl)but-3-en-2-yl)piperidine-4-carboxamide]
450 | 430 | COc1ccc(S(=O)(=O)N2CCC(F)(C(=O)N[C@H](C)/C=C\S(C)(=O)=O)CC2)c(-c2ccc(F)cc2Cl)c1 [Compound 27, (R,Z)-1-((2′-chloro-4′-fluoro-5-methoxy-[1,1′-biphenyl]-2-yl)sulfonyl)-4-fluoro-N-(4-(methylsulfonyl)but-3-en-2-yl)piperidine-4-carboxamide]
 | 240 | N#C/C=C/CNC(=O)C1(F)CCN(S(=O)(=O)c2cnc(Br)cc2-c2ccccc2Cl)CC1 [Compound 278, (E)-1-((6-bromo-4-(2-chlorophenyl)pyridin-3-yl)sulfonyl)-N-(3-cyanoallyl)-4-fluoropiperidine-4-carboxamide]

SMILES | IC50 [1] [nM] | IC50 [2] [nM]
CCCCOc1cccc(-c2cc(Cl)ccc2S(=O)(=O)N2CCC(F)(C(=O)N[C@@H](C)/C=C\S(C)(=O)=O)CC2)c1 [Compound 13, (S,Z)-1-((3′-butoxy-5-chloro-[1,1′-biphenyl]-2-yl)sulfonyl)-4-fluoro-N-(4-(methylsulfonyl)but-3-en-2-yl)piperidine-4-carboxamide] | 480 | 340
